# Source: US11584710B2, “Compounds for treating infections” (HORITZONTS TECNOLOGICS HUNGARY KORLÁTOLT FELELOSSÉGU …, priority 2017, dated 2023)
# How the values were obtained:
# Format in all cases: cell-based
# A. baumannii = assay: Kirby-Bauer disk diffusion susceptibility test; details: 300 μg/disc
# Protocol: (§1) Bacterial strains, from clinical origin, were supplied by the National Center for Microbiology, Institute of Health Carlos III (Majadahonda, Madrid). They are detailed in Table 1.
# (§2) Bacterial cells suspension in sterile saline was prepared from a culture of 24-72 h, depending on bacterial species, in Mueller-Hinton Agar with 5% sheep blood. Each suspension was adjusted to a fixed size inoculum of 1-5×10^8 CFU/ml with a spectrophotometer (Ferraro, MJ National Committee for Clinical Laboratory Standards. 2000).
# (§3) Kirby-Bauer disk diffusion susceptibility test protocol was utilized to determine the sensitivity or resistance of pathogenic bacteria against the compounds and others antibiotics. The absence of growth around the disks is an indirect measure of the ability of this compound to inhibit an organism (Kirby, W., et al., Antibiotics Annu. 1956-1957:892). After 18 to 72 hours of incubation at 37° C., with or without CO2, under aerobic or anaerobic conditions, depending on the bacterial species, halo of growth inhibition were obtained and evaluated.
# (§4) Interpretation of susceptibility and resistance was based on the presence or absence of a zone of inhibition surrounding the disk. Kirby-Bauer disk diffusion susceptibility test is a common method which uses antibiotic-impregnated wafers to test whether bacteria are affected by antibiotics. The size of the zone of inhibition depends on how effective the antibiotic is at stopping the growth of the bacterium. A stronger antibiotic will create a larger zone, because a lower concentration of the antibiotic is enough to stop growth.
# (§5) All compounds were tested at 300 μg/disc.
# P. aeruginosa = assay: Kirby-Bauer disk diffusion susceptibility test; details: 300 μg/disc
# Protocol: as §1, §2, §3, §4, §5
# A. flavus = assay: Antifungal disk diffusion susceptibility test (CLSI M44); details: Aspergillus flavus, A. flavus
# Protocol: (§6) Filamentous fungi and yeasts strains, from clinical origin, were supplied by Microbiology Service from The Princess Hospital, Madrid. They are detailed in Table IX.
# (§7) Filamentous fungi and yeast cells suspensions in distilled water was prepared from a culture of 24-48 h, depending on species, in Sabouraud agar. Each suspension was adjusted to a fixed size inoculum of 1-5×10^8 CFU/ml with a spectrophotometer (Ferraro, MJ National Committee for Clinical Laboratory Standards. 2000).
# (§8) Antifungal susceptibility tests were developed following the standardized methodology detailed in document CLSI: M44-4: Method for Antifungal Disk diffusion susceptibility testing of yeasts consisting of disk diffusion on agar Muller-Hinton (supplemented with 2% glucose).
# A. fumigatus = assay: as above; details: Aspergillus fumigatus, A. fumigatus
# Protocol: as §6, §7, §8
# A. niger = assay: as above; details: Aspergillus niger, A. niger
# Protocol: as §6, §7, §8
# A. terreus = assay: as above; details: Aspergillus terreus, A. terreus
# Protocol: as §6, §7, §8
# C. albicans = assay: as above; details: Candida albicans, C. albicans
# Protocol: as §6, §7, §8
# C. guillermondii = assay: as above; details: C. guillermondii
# Protocol: as §6, §7, §8
# C. lusitaniae = assay: as above; details: Clavispora lusitaniae, C. lusitaniae
# Protocol: as §6, §7, §8
# C. parapsilosis = assay: as above; details: Lodderomyces parapsilosis, C. parapsilosis
# Protocol: as §6, §7, §8
# C. tropicalis = assay: as above; details: Candida tropicalis, C. tropicalis
# Protocol: as §6, §7, §8
# S. cerevisiae = assay: as above; details: Saccharomyces cerevisiae, S. cerevisiae
# Protocol: as §6, §7, §8
# HIV = assay: Anti-HIV assay, recombinant virus with Renilla reporter gene in MT-2 cells; details: Human immunodeficiency virus 1, MT2, read-out: IC50 VIH MT-2 μM
# Excerpt: Assessment of in vitro antiviral activity is usually performed to estimate parameters of antiviral potency and efficacy represented by the percentage of inhibition of HIV activity or IC50. The assay utilized is based on the use of recombinant viruses in which the nef gene, […] for in vitro HIV replication, has been replaced by a Renilla reporter gene so that viral replication can be quantified directly (García-Perez J et al, J Med Virol. 2007 February; 79(2):127-37). The assay was performed infecting MT-2 cells or PHA-activated PBMCs/IL-2 with viral supernatants obtained previously. The study was development in AIDS Immunopathology Unit, Nacional Center of Microbiology, Institute of Health Carlos 111, Majadahonda, Madrid, Spain.
# All data are expressed as percentage relative to a control with DMSO at the same concentration. Antiviral activity and toxicity curves were performed to the compound at different concentrations.
# [1] = Cellular viability, CellTiter Glo; details: human; MT-2 cells; concentration required to kill 50% of cells; read-out: CC50 VIH MT-2 μM
# Protocol: All assays for assessing anti-HIV activity were taken in parallel to determine cellular viability of the culture in the presence or absence of different concentrations of the isolated molecule. It was followed exactly the same methodology as in the anti-HIV assay except with the addition of complete DMEM medium instead of supernatant viral, in the same proportion, and the detection of the viability was performed with the viability detection kit CellTiter Glo (Promega), following manufacturer instructions. Viability is directly proportional to the luciferase activity obtained. All data are expressed as percentage relative to a control with DMSO at the same concentration. Antiviral activity and toxicity curves were performed to the compound at different concentrations.
smiles,measurement,setting,value
NNC(=O)C(=O)NNc1ccccc1 [MSG-119],Activity detected (mm),A. baumannii,20 mm
same,Activity detected (mm),P. aeruginosa,15 mm
same,zone of inhibition at 150 µg/disc,A. flavus; 150 μg/disc,18 mm
same,zone of inhibition at 500 µg/disc,A. flavus; 500 μg/disc,> 40 mm
same,zone of inhibition at 150 µg/disc,A. fumigatus; 150 μg/disc,22 mm
same,zone of inhibition at 500 µg/disc,A. fumigatus; 500 μg/disc,> 40 mm
same,zone of inhibition at 150 µg/disc,A. niger; 150 μg/disc,24 mm
same,zone of inhibition at 500 µg/disc,A. niger; 500 μg/disc,> 40 mm
same,zone of inhibition at 150 µg/disc,A. terreus; 150 μg/disc,20 mm
same,zone of inhibition at 500 µg/disc,A. terreus; 500 μg/disc,> 40 mm
same,zone of inhibition at 150 µg/disc,C. albicans; 150 μg/disc,21 mm
same,zone of inhibition at 500 µg/disc,C. albicans; 500 μg/disc,24 mm
same,zone of inhibition at 150 µg/disc,C. guillermondii; 150 μg/disc,12 mm
same,zone of inhibition at 500 µg/disc,C. guillermondii; 500 μg/disc,> 40 mm
same,zone of inhibition at 150 µg/disc,C. lusitaniae; 150 μg/disc,< 10 mm
same,zone of inhibition at 500 µg/disc,C. lusitaniae; 500 μg/disc,20 mm
same,zone of inhibition at 150 µg/disc,C. parapsilosis; 150 μg/disc,15 mm
same,zone of inhibition at 500 µg/disc,C. parapsilosis; 500 μg/disc,> 40 mm
same,zone of inhibition at 150 µg/disc,C. tropicalis; 150 μg/disc,20 mm
same,zone of inhibition at 500 µg/disc,C. tropicalis; 500 μg/disc,> 40 mm
same,zone of inhibition at 150 µg/disc,S. cerevisiae; 150 μg/disc,26 mm
same,zone of inhibition at 500 µg/disc,S. cerevisiae; 500 μg/disc,35 mm
same,IC50,HIV,7.11 µM
same,CC50,[1],> 100 µM
